Laboratory results: ChEMBL document CHEMBL5143615, “Novel 2-aryl-4-aryloxyquinoline-based fungistatics for Mucor circinelloides. Biological evaluation of activity, QSAR and docking study” (Bioorg Med Chem Lett, 2022)
Values after ≈ are worked out from the molar mass of the structure shown. Active and inactive are the calls of the source. The rule behind the calls is not given here.

What was measured:
Mucor circinelloides [1] = experiment: Antifungal activity against Mucor circinelloides R7B wild type strain assessed as reduction in spore germination at 100 ug/ml relative to control; format: functional; design: scale not given: the % may be the effect or the level left; conditions: dose 100 µg/ml
Mucor circinelloides [2] = experiment: Antifungal activity against Mucor circinelloides M5 strain assessed as reduction in spore germination at 100 ug/ml relative to control; format: functional; design: scale not given: the % may be the effect or the level left; conditions: dose 100 µg/ml
Mucor circinelloides [3] = experiment: Antifungal activity against Mucor circinelloides R7B wild type strain assessed as reduction in spore germination at 25 ug/ml relative to control; format: functional; design: scale not given: the % may be the effect or the level left; conditions: dose 25 µg/ml
Mucor circinelloides [4] = experiment: Antifungal activity against Mucor circinelloides M5 strain assessed as reduction in spore germination at 25 ug/ml relative to control; format: functional; design: scale not given: the % may be the effect or the level left; conditions: dose 25 µg/ml
Mucor circinelloides [5] = experiment: Antifungal activity against Mucor circinelloides R7B wild type strain assessed as reduction in spore germination at 50 ug/ml relative to control; format: functional; design: scale not given: the % may be the effect or the level left; conditions: dose 50 µg/ml
Mucor circinelloides [6] = experiment: Antifungal activity against Mucor circinelloides M5 strain assessed as reduction in spore germination at 50 ug/ml relative to control; format: functional; design: scale not given: the % may be the effect or the level left; conditions: dose 50 µg/ml
Mucor circinelloides [7] = experiment: Antifungal activity against Mucor circinelloides R7B wild type strain assessed as reduction in spore germination at 150 ug/ml relative to control; format: functional; design: scale not given: the % may be the effect or the level left; conditions: dose 150 µg/ml
Mucor circinelloides [8] = experiment: Antifungal activity against Mucor circinelloides M5 strain assessed as reduction in spore germination at 150 ug/ml relative to control; format: functional; design: scale not given: the % may be the effect or the level left; conditions: dose 150 µg/ml
Microsporum canis [9] = experiment: Antifungal activity against Microsporum canis clinical isolate 1 assessed as reduction in fungal growth by broth dilution method; format: functional
Microsporum canis [10] = experiment: Antifungal activity against Microsporum canis clinical isolate 2 assessed as reduction in fungal growth by broth dilution method; format: functional
Microsporum canis [11] = experiment: Antifungal activity against Microsporum canis clinical isolate 3 assessed as reduction in fungal growth by broth dilution method; format: functional
Nannizzia gypsea [12] = experiment: Antifungal activity against Microsporum gypseum clinical isolate 1 assessed as reduction in fungal growth by broth dilution method; format: functional
Nannizzia gypsea [13] = experiment: Antifungal activity against Microsporum gypseum clinical isolate 2 assessed as reduction in fungal growth by broth dilution method; format: functional
Mucor circinelloides [14] = experiment: Antifungal activity against Mucor circinelloides M5 strain assessed as reduction in fungal growth by broth dilution method; format: functional
[15] = system: Trichophyton mentagrophytes; experiment: Antifungal activity against Trichophyton mentagrophytes clinical isolate 1 assessed as reduction in fungal growth by broth dilution method; format: functional
[16] = system: Trichophyton mentagrophytes; experiment: Antifungal activity against Trichophyton mentagrophytes clinical isolate 2 assessed as reduction in fungal growth by broth dilution method; format: functional
[17] = system: Trichophyton mentagrophytes; experiment: Antifungal activity against Trichophyton mentagrophytes clinical isolate 3 assessed as reduction in fungal growth by broth dilution method; format: functional
Trichophyton rubrum [18] = experiment: Antifungal activity against Trichophyton rubrum clinical isolate 1 assessed as reduction in fungal growth by broth dilution method; format: functional
Trichophyton rubrum [19] = experiment: Antifungal activity against Trichophyton rubrum clinical isolate 2 assessed as reduction in fungal growth by broth dilution method; format: functional
Epidermophyton floccosum = experiment: Antifungal activity against Epidermophyton floccosum clinical isolate 1 assessed as reduction in fungal growth by broth dilution method; format: functional
Aspergillus nidulans [20] = experiment: Antifungal activity against Aspergillus nidulans clinical isolate 1 assessed as reduction in fungal growth by broth dilution method; format: functional
Aspergillus nidulans [21] = experiment: Antifungal activity against Aspergillus nidulans clinical isolate 2 assessed as reduction in fungal growth by broth dilution method; format: functional
Aspergillus niger = experiment: Antifungal activity against Aspergillus niger clinical isolate 1 assessed as reduction in fungal growth by broth dilution method; format: functional
Mucor circinelloides [22] = experiment: Antifungal activity against Mucor circinelloides R7B wild type strain assessed as reduction in fungal growth by broth dilution method; format: functional
[23] = Cytotoxicity against mouse NIH/3T3 cells assessed as reduction in cell viability at 25 ug/ml incubated for 48 hrs by MTT assay (reference value: 93.8 +/- 4.9 %); format: toxicity, cell-based, NIH3T3; conditions: at 25 µg/mL, read-out: Activity
[24] = Cytotoxicity against mouse NIH/3T3 cells assessed as reduction in cell viability at 50 ug/ml incubated for 48 hrs by MTT assay (reference value: 93.8 +/- 4.9 %); format: toxicity, cell-based, NIH3T3; conditions: at 50 µg/mL, read-out: Activity
[25] = Cytotoxicity against mouse NIH/3T3 cells assessed as reduction in cell viability at 100 ug/ml incubated for 48 hrs by MTT assay (reference value: 93.8 +/- 4.9 %); format: toxicity, cell-based, NIH3T3; conditions: at 100 µg/mL, read-out: Activity
[26] = Cytotoxicity against mouse NIH/3T3 cells assessed as reduction in cell viability at 150 ug/ml incubated for 48 hrs by MTT assay (reference value: 93.8 +/- 4.9 %); format: toxicity, cell-based, NIH3T3; conditions: at 150 µg/mL, read-out: Activity
[27] = Cytotoxicity against mouse NIH/3T3 cells assessed as reduction in cell viability at 200 ug/ml incubated for 48 hrs by MTT assay (reference value: 93.8 +/- 4.9 %); format: toxicity, cell-based, NIH3T3; conditions: at 200 µg/mL, read-out: Activity
[28] = target: T1, Lanosterol 14-alpha demethylase (Mus musculus, UniProt Q8K0C4); experiment: Inhibition of CYP51 in mouse NIH/3T3 cells assessed as specific enzymatic activity at 25 ug/ml incubated for 48 hrs by ELISA analysis; format: ADME, cell-based; conditions: nih/3t3, 48 h, dose 25 µg/ml
T1 sequence (Q8K0C4 whole entry): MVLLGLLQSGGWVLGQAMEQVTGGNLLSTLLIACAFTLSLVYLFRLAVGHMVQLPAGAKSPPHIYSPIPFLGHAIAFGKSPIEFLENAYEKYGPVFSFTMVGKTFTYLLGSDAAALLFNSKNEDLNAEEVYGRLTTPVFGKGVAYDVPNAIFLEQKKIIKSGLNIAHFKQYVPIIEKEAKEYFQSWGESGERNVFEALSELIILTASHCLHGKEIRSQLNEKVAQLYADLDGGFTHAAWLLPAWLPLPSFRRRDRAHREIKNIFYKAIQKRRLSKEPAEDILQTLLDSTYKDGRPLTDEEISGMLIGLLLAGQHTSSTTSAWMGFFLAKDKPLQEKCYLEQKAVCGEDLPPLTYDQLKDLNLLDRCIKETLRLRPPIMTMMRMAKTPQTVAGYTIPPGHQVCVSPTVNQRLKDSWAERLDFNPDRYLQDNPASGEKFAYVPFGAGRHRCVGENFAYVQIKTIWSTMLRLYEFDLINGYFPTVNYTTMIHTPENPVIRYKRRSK

[29] = target: T1, Lanosterol 14-alpha demethylase; experiment: Inhibition of CYP51 in mouse NIH/3T3 cells assessed as specific enzymatic activity at 50 ug/ml incubated for 48 hrs by ELISA analysis; format: ADME, cell-based; conditions: nih/3t3, 48 h, dose 50 µg/ml
[30] = target: T1, Lanosterol 14-alpha demethylase; experiment: Inhibition of CYP51 in mouse NIH/3T3 cells assessed as specific enzymatic activity at 100 ug/ml incubated for 48 hrs by ELISA analysis; format: ADME, cell-based; conditions: nih/3t3, 48 h, dose 100 µg/ml
[31] = target: T1, Lanosterol 14-alpha demethylase; experiment: Inhibition of CYP51 in mouse NIH/3T3 cells assessed as specific enzymatic activity at 150 ug/ml incubated for 48 hrs by ELISA analysis; format: ADME, cell-based; conditions: nih/3t3, 48 h, dose 150 µg/ml
[32] = target: T1, Lanosterol 14-alpha demethylase; experiment: Inhibition of CYP51 in mouse NIH/3T3 cells assessed as specific enzymatic activity at 200 ug/ml incubated for 48 hrs by ELISA analysis; format: ADME, cell-based; conditions: nih/3t3, 48 h, dose 200 µg/ml
Mucor circinelloides [33] = experiment: Antifungal activity against Mucor circinelloides R7B wild type strain assessed as few mycelia with several spores at 50 ug/ml by microscopic analysis; format: functional, organism-based; conditions: dose 50.0 µg/ml
Mucor circinelloides [34] = experiment: Antifungal activity against Mucor circinelloides M5 strain assessed as few mycelia with several spores at 50 ug/ml by microscopic analysis; format: functional, organism-based; conditions: dose 50.0 µg/ml
Mucor circinelloides [35] = experiment: Antifungal activity against Mucor circinelloides R7B wild type strain assessed as non-germinated spores and undifferentiated hyphae at 50 ug/ml by microscopic analysis; format: functional, organism-based; conditions: dose 50.0 µg/ml
Mucor circinelloides [36] = experiment: Antifungal activity against Mucor circinelloides M5 strain assessed as non-germinated spores and undifferentiated hyphae at 50 ug/ml by microscopic analysis; format: functional, organism-based; conditions: dose 50.0 µg/ml
Mucor circinelloides [37] = experiment: Antifungal activity against Mucor circinelloides R7B wild type strain assessed as complete absence of mycelia at 100 to 150 ug/ml by microscopic analysis; format: functional, organism-based; conditions: dose 100-150 µg/ml
Mucor circinelloides [38] = experiment: Antifungal activity against Mucor circinelloides M5 strain assessed as complete absence of mycelia at 100 to 150 ug/ml by microscopic analysis; format: functional, organism-based; conditions: dose 100-150 µg/ml
Mucor circinelloides [39] = experiment: Antifungal activity against Mucor circinelloides R7B wild type strain assessed as non-germinated spores at 100 to 150 ug/ml by microscopic analysis; format: functional, organism-based; conditions: dose 100-150 µg/ml
Mucor circinelloides [40] = experiment: Antifungal activity against Mucor circinelloides M5 strain assessed as non-germinated spores at 100 to 150 ug/ml by microscopic analysis; format: functional, organism-based; conditions: dose 100-150 µg/ml

SMILES: Fc1cc(F)cc(-c2cc(Oc3ccccc3)c3ccccc3n2)c1
- Activity (Mucor circinelloides [1]): 6.7%
- Activity (Mucor circinelloides [2]): 4.5%
- Activity (Mucor circinelloides [3]): 78.5%
- Activity (Mucor circinelloides [4]): 74.2%
- Activity (Mucor circinelloides [5]): 34.7%
- Activity (Mucor circinelloides [6]): 38.5%
- Activity (Mucor circinelloides [7]): 1.7%
- Activity (Mucor circinelloides [8]): 2.5%
- MIC (Microsporum canis [9]): 100 µg/mL (≈ 300 µM)
- MIC (Microsporum canis [10]): 100 µg/mL (≈ 300 µM)
- MIC (Microsporum canis [11]): 100 µg/mL (≈ 300 µM)
- MIC (Nannizzia gypsea [12]): 100 µg/mL (≈ 300 µM)
- MIC (Nannizzia gypsea [13]): 100 µg/mL (≈ 300 µM)
- MIC (Mucor circinelloides [14]): 100 µg/mL (≈ 300 µM)
- MIC [15]: 125 µg/mL (≈ 375 µM)
- MIC [16]: 125 µg/mL (≈ 375 µM)
- MIC [17]: 125 µg/mL (≈ 375 µM)
- MIC (Trichophyton rubrum [18]): 125 µg/mL (≈ 375 µM)
- MIC (Trichophyton rubrum [19]): 125 µg/mL (≈ 375 µM)
- MIC (Epidermophyton floccosum): 125 µg/mL (≈ 375 µM)
- MIC (Aspergillus nidulans [20]): 150 µg/mL (≈ 450 µM)
- MIC (Aspergillus nidulans [21]): 150 µg/mL (≈ 450 µM)
- MIC (Aspergillus niger): 150 µg/mL (≈ 450 µM)
- MIC (Mucor circinelloides [22]): 150 µg/mL (≈ 450 µM)
- viability at 48 h, 25 ug/ml [23]: 90.7%
- viability at 48 h, 50 ug/ml [24]: 53.3%
- viability at 48 h, 100 ug/ml [25]: 20.4%
- viability at 48 h, 150 ug/ml [26]: 15%
- viability at 48 h, 200 ug/ml [27]: 12.6%
- Activity [28]: 17.96 U/mg
- Activity [29]: 13.12 U/mg
- Activity [30]: 6.76 U/mg
- Activity [31]: 3.28 U/mg
- Activity [32]: 1.18 U/mg
- Activity (Mucor circinelloides [33]): Active
- Activity (Mucor circinelloides [34]): Active
- Activity (Mucor circinelloides [35]): Active
- Activity (Mucor circinelloides [36]): Active
- Activity (Mucor circinelloides [37]): Active
- Activity (Mucor circinelloides [38]): Active
- Activity (Mucor circinelloides [39]): Active
- Activity (Mucor circinelloides [40]): Active
